Laboratory results reported in PubChem BioAssay AID1996.
≈ marks a conversion by molar mass, not a printed value.

conditions: buffer; pH 7.4; 200.0 µM

SMILES | solubility kinetic [µg/mL]
Cc1cc(CNC(=O)COc2ccc([N+](=O)[O-])cc2)c2ccccc2n1 | 2.3 (≈ 6.55 µM)
O=C1CC2C(=O)NCCN2C(=NC(=O)c2ccc(Cl)cc2)N1 (centres undefined) | 23.5 (≈ 73.3 µM)
COc1ccc(NC(=O)CCCC(=O)O)cc1Cl | > 40.8
COc1ccc(C(=O)NC(C)CCc2ccccc2)c(OC)c1 (centres undefined) | 41.5 (≈ 132 µM)
Oc1ccc2ccccc2c1C=NC12CN3CCN(CN(C3)C1)C2 | 46.5 (≈ 144 µM)
Cc1cc(=O)[nH]c2sc(C(=O)N3c4ccccc4CC3C)c(N)c12 (centres undefined) | > 50.9
NC(=O)CSc1nnc(Cc2ccc3c(c2)OCO3)o1 | > 44
Cc1cccc(C)c1N(CC(=O)N1CCOCC1)S(C)(=O)=O | > 49
CCOc1ncccc1C(=O)OCC(=O)c1ccc(C)c(C)c1 | 17 (≈ 54.3 µM)
O=C(CCNS(=O)(=O)c1ccccc1F)OCc1ccccc1Cl | 34.5 (≈ 92.8 µM)
Cc1ccc(NC(=O)c2oc3ccccc3c2COC(C)C)cc1S(=O)(=O)N1CCOCC1 | 3.6 (≈ 7.62 µM)
Cc1nc(SCc2cccc(C(=O)O)c2)nc2c1CCCC2 | > 47.2
COCCCn1c(=O)c2ccccc2n(Cc2cccc(C)c2)c1=O | 42.6 (≈ 126 µM)
O=C(CN1CCCC1)NCC(=O)Nc1ccc(F)cc1 | > 41.9
CC(C)Oc1cccc(OCCN2C(=O)c3ccccc3C2=O)c1 | 13.8 (≈ 42.4 µM)
COc1ccc(CNC(=S)NCc2ccc(Cl)cc2)cc1OC | 35 (≈ 99.8 µM)
O=C(COC(=O)CCC(=O)c1ccc(Cl)cc1)NCCc1ccccc1 | 5.7 (≈ 15.2 µM)
O=C(COC(=O)/C=C/c1cc(Br)ccc1F)NC1CC1 | 7 (≈ 20.5 µM)
CC(C)CCn1c(N2CCCC2)nc2c1c(=O)n(C)c(=O)n2C | 46.6 (≈ 146 µM)
CCOc1ccc(NC(=O)COC(=O)c2cc(C)oc2C)cc1 | 4.2 (≈ 13.2 µM)
O=C(Cc1cccs1)Nc1nc(-c2cccnc2)cs1 | 5.3 (≈ 17.6 µM)
Cc1ccc(NC(=O)c2ccc(NC(=O)C3CCCCC3C(=O)O)cc2)cc1 (centres undefined) | > 57.1
O=C(NC(=S)Nc1cccnc1)c1ccccc1 | 36.1 (≈ 140 µM)
O=C(/C=C/c1ccccc1)Nc1cccnc1Oc1ccccc1F | 2.7 (≈ 8.08 µM)

SMILES | solubility kinetic [µg/mL]
CCC(C)c1ccc(NC(=O)COC(=O)CCNS(=O)(=O)c2cccs2)cc1 (centres undefined) | 21.2 (≈ 49.9 µM)
Cc1ccccc1C(=O)NC1CCN(CC(=O)NC2CCCCC2)CC1 | > 53.6
C/C(=C\c1ccccc1)C(=O)N1CCN(Cc2ccc3c(c2)OCO3)CC1 | 51.8 (≈ 142 µM)
Cc1ccc2oc(=O)n(CCOc3ccccc3)c2c1 | 14.2 (≈ 52.7 µM)
CCOC(=O)c1cc(CC)sc1NC(=O)COC(=O)C1CCC1 | < 0.7
OC[C@H]1O[C@@H](n2cnc3c(NC4CCCC4)ncnc32)[C@H](O)[C@@H]1O | > 50.3
Cc1ccc2c(c1)-c1[nH]c(=S)ncc1CS2 | 3.8 (≈ 15.4 µM)
COC(=O)c1sccc1NC(=O)Nc1ccc(C)c(C)c1 | 20.7 (≈ 68 µM)
COc1cc(S(=O)(=O)NC2CCCC2)c(OC)cc1C | 26.5 (≈ 88.5 µM)
Cl.NC1(C(=O)O)CC1 | > 20.6
Cc1ccc(S(=O)(=O)CCSc2nccn2C)cc1 | > 44.5
Cl.Oc1ccc(Nc2ncnc3c2oc2ccccc23)cc1 | 0.7
Cc1ccccc1N1C(=O)CC(c2c[nH]c3ccccc23)C1=O (centres undefined) | > 45.7
COCCN(CCOC)S(=O)(=O)c1ccc(Cl)nc1 | 45.3 (≈ 147 µM)
COc1cccc(/C=C/c2nc(C#N)c(NCC(C)C)o2)c1 | 0.4 (≈ 1.35 µM)
CC(C)CC1CCCCC1OC(=O)CN1CCCCC1 (centres undefined) | 3.7 (≈ 13.1 µM)
CCSc1nc(NCCN(C)C)c2c3c(sc2n1)COC(C)(CC)C3 (centres undefined) | 46.4 (≈ 122 µM)
Cc1cc(=O)[nH]c(Nc2cccc(F)c2)n1 | > 32.9
O=C1CC(c2ccccc2)CC(O)=C1C=NCc1ccncc1 (centres undefined) | > 46
COc1ccc(NC(=O)c2ccco2)cc1NC(=O)c1ccccc1 | 4.9 (≈ 14.6 µM)
CC(=O)c1ccc(-c2ccc(C(=O)NCC(c3ccco3)N(C)C)o2)cc1 (centres undefined) | > 55
Cc1cccc(NS(=O)(=O)c2ccc([N+](=O)[O-])cc2)n1 | 39.4 (≈ 134 µM)
Cc1ccc(CNC(=O)CNC(=O)c2ccco2)cc1 | > 40.8
CC(=O)NCCCNS(=O)(=O)c1ccc(C)cc1 | 32.2 (≈ 119 µM)

SMILES | solubility kinetic [µg/mL]
COc1ccc(/C=C/C(=O)OCC(=O)NC2CCCC2)cc1OC | 48.6 (≈ 146 µM)
O=C(CNC(=O)c1ccccc1Cl)NCCc1cccs1 | > 48.4
Clc1ccccc1Nc1nc(-c2ccncc2)nc2ccccc12 | 0.8 (≈ 2.4 µM)
CCc1nc2cc3sc(CC)nc3cc2s1 | 0.6 (≈ 2.42 µM)
CN1CCCC(C(=O)c2ccc(-c3ccccc3)cc2)C1 (centres undefined) | 27.3 (≈ 97.7 µM)
COC(=O)c1sccc1NC(=O)Nc1cc(C)cc(C)c1 | 2.7 (≈ 8.87 µM)
O=C(COc1ccc(Cl)cc1)NCCNC(=O)c1ccccn1 | 47.6 (≈ 143 µM)
O=C1CSC(c2cccnc2)N1c1cccc(Cl)c1 (centres undefined) | 43.3 (≈ 149 µM)
CCCCCCCCCC(=O)N[C@H](CN1CCOCC1)[C@H](O)c1ccccc1.Cl | > 64.1
COC(=O)C/C=N/N=C1/NC(=O)/C(=C/C(=O)O)S1 | > 40.7
COc1ccc(NC(=S)N2CCC(c3ccc(C)cc3)C2)cc1 (centres undefined) | 0.6 (≈ 1.84 µM)
Cc1ccc(OCC(=O)N2CCN(C(=O)c3ccncc3)CC2)cc1 | > 50.9
COc1cc(C(=S)N2CCCC2)ccc1OCc1ccccc1 | 1.5 (≈ 4.58 µM)
CC(C(=O)NC(c1ccccc1)c1ccccc1)N1CCOCC1 (centres undefined) | 44.9 (≈ 138 µM)
CC(=O)C1=C(O)C(=O)N(Cc2ccco2)C1c1ccccc1F (centres undefined) | > 47.3
Cn1c(N)c(N=O)c(=O)n(C)c1=O | > 27.6
COc1ccc([N+](=O)[O-])cc1NC(=O)Cc1noc2ccccc12 | 0.3 (≈ 0.917 µM)
COc1cc(N)c(Cl)cc1C(=O)OCC(=O)NCc1cccs1 | 20.6 (≈ 58.1 µM)
O=C(Nc1cc(S(=O)(=O)N2CCCCC2)ccc1Cl)C1COc2ccccc2O1 (centres undefined) | 5.4 (≈ 12.4 µM)
Cc1ccc(S(=O)(=O)N2CC(O)CC2C(=O)O)cc1 (centres undefined) | > 42.8
CCc1cccc(CC)c1-n1c(SCC(=O)N2CCCc3ccccc32)nc(O)cc1=O | > 67.4
COc1ccc(NC(=O)COC(=O)C2CC2)c(OC)c1 | > 41.9
Cc1nc(SCC(=O)NC2CCS(=O)(=O)C2)c2c3c(sc2n1)CCC3 (centres undefined) | 7.3 (≈ 18.4 µM)
CC(=O)Nc1ccc(S(=O)(=O)N2CCNC(=O)C2)cc1 | > 44.6

SMILES | solubility kinetic [µg/mL]
CC(C)Oc1ccccc1/C=N/NC(=O)C1CC1 | > 36.9
O=C1NC2(CCCC2)C(=O)N1Cc1cc(=O)n2ccsc2n1 | > 47.8
Nc1ncc2c(n1)CCN(c1ccc([N+](=O)[O-])cc1)C2 | 5.9 (≈ 21.7 µM)
COc1ccc(OC)c(C(O)C(C)N)c1.Cl (centres undefined) | > 37.2
Cc1nc2ccc(Cl)cc2c(=O)n1-c1ccccc1Cl | 10.4 (≈ 34.1 µM)
C=CCn1cccc(C(=O)Nc2ccc(N(C)C)cc2)c1=O | > 44.6
CCCc1cnc(N2CCN(S(C)(=O)=O)CC2)nc1 | > 42.7
O=C(COc1ccc2ccccc2c1)Nc1ccccc1C(=O)O | > 48.2
O=C(OCc1cccc([N+](=O)[O-])c1)c1ccc[nH]c1=O | > 41.1
Cc1cc(=O)c(C(=O)O)nn1-c1ccccc1Cl | > 39.7
COc1ccc(-c2cc(C(=O)N3CCCCC3)c3ccccc3n2)cc1 | 33.5 (≈ 96.7 µM)
O=C(NCC1CCCO1)c1csc(Nc2cccc3ccccc23)n1 (centres undefined) | 28.5 (≈ 80.6 µM)
CC1CCCCC1N=C1NC(C)(C)CS1 (centres undefined) | > 34
CC(NCC#Cc1ccccc1)C(O)c1ccccc1.Cl (centres undefined) | 44.8
CCc1noc(C)c1C(=O)Nc1ccc(F)c(F)c1 | 37.7 (≈ 142 µM)
Cc1cccc(Nc2nc(N3CCOCC3)nc(N3CCOCC3)n2)c1 | 34.9 (≈ 97.9 µM)
Cc1cccnc1NC(=O)CCCc1c[nH]c2ccccc12 | 36.8 (≈ 125 µM)
COc1ccc(CN2CN(C3CCCC3)CSC2=S)cc1 | 0.8 (≈ 2.48 µM)
Cc1cccc(C(=O)NC(=S)NC(C)c2ccccc2)c1 (centres undefined) | 1 (≈ 3.35 µM)
CC(C)Sc1nc2ncnc(N)c2[nH]1 | > 31.4
CCCCCn1c(C)c2c(OCC)cccc(=O)c2c1C | 9.4 (≈ 32.7 µM)
CC(=O)N1C(=O)NC2=C(C(=O)CCC2)C1c1cccc([N+](=O)[O-])c1 (centres undefined) | > 49.4
O=C1N=C(N2CCCCC2)S/C1=C\c1ccccc1F | 4.7 (≈ 16.2 µM)
CCOC(=O)COc1cc2oc(=O)cc(C)c2cc1[N+](=O)[O-] | 3 (≈ 9.76 µM)

SMILES | solubility kinetic [µg/mL]
O=[N+]([O-])c1ccc(C(O)C23CN4CN(CN(C4)C2)C3)cc1 (centres undefined) | 34.8 (≈ 120 µM)
Cc1cccc(N2CCN(C(=O)NCc3ccc(F)cc3)CC2)c1C | 3.2 (≈ 9.37 µM)
O=C(CS(=O)(=O)Cc1ccccc1)Nc1ccc2c(c1)OCO2 | 15.7 (≈ 47.1 µM)
CC(C)Cc1nc2sc3c(SCC(N)=O)ncnc3c2c2c1CCC2 | 0.3 (≈ 0.805 µM)
O=C(CSc1ncc(C(F)(F)F)cc1Cl)N1CCNC1=O | > 51
O=C(Nc1cccc(O)c1)c1cccc(C(=O)Nc2cccc(O)c2)c1 | 1.8 (≈ 5.17 µM)
CCc1ccc2c(c1)C(O)(CC(=O)c1cccs1)C(=O)N2 (centres undefined) | > 45.2
COCCCNC(=O)C1CC(=O)N(CCc2ccc(F)cc2)C1 (centres undefined) | > 48.4
CC(=O)N/C(=N/c1nc(C)cc(C)n1)Nc1ccc(C)cc1C | 3.4 (≈ 10.9 µM)
O=C(NCCNc1ccc([N+](=O)[O-])cc1)c1cc(F)c(F)cc1Cl | 2 (≈ 5.62 µM)
O=C(CSc1ccccc1F)NCCN1C(=O)CSC1=O | 48.1 (≈ 146 µM)
CCOc1ccc(/C=C/C(=O)NC2CCCCC2)cc1 | < 0.6
COc1ccc2[nH]cc(CCNC(=O)C3CCCCC3)c2c1 | 42.7 (≈ 142 µM)
COc1ccc(Oc2nc3c(c(=O)n(C)c(=O)n3C)n2C)cc1 | > 47.4
O=C(O)Cn1c(-c2ccccc2)cc2ccccc21 | 25.3 (≈ 101 µM)
O=C(CSc1ccccc1)NC1CCCCCC1 | > 39.5
O=[N+]([O-])c1ccccc1Nc1nc(-c2cccnc2)cs1 | 1.7 (≈ 5.7 µM)
COCC(=O)N1CCCC(C(=O)c2ccc3c4c(cccc24)CC3)C1 (centres undefined) | 49.8 (≈ 148 µM)
O=C(c1cc2cc(Cl)ccc2[nH]1)N1CCCCC1 | 2 (≈ 7.61 µM)
O=C(CSc1nc2ncccc2[nH]1)NCc1ccco1 | > 43.2
COc1ccc(NC(=O)CNc2cc(S(=O)(=O)N3CCOCC3)ccc2N2CCOCC2)c(OC)c1 | 4.2 (≈ 8.07 µM)
Cc1ccc(-c2csc3nc[nH]c(=O)c23)cc1C | 6.6 (≈ 25.7 µM)
CCC(=O)c1ccc(OCC(O)CNC2CCCC2)cc1 (centres undefined) | 35.6 (≈ 122 µM)
